From ChEMBL document CHEMBL4725416, “Structure-Based Discovery of Novel Ligands for the Orexin 2 Receptor” (J Med Chem, 2020) come the findings set out here.

Calls of active or inactive are those of the source. No rule for the calls is given here. Where only a bound is given, the exact number is not on record here.

Type in all cases: cell-based
For experiment [1], the target named is T1, Orexin/Hypocretin receptor type 1 (Homo sapiens) (UniProt O43613).
T1 sequence (whole entry): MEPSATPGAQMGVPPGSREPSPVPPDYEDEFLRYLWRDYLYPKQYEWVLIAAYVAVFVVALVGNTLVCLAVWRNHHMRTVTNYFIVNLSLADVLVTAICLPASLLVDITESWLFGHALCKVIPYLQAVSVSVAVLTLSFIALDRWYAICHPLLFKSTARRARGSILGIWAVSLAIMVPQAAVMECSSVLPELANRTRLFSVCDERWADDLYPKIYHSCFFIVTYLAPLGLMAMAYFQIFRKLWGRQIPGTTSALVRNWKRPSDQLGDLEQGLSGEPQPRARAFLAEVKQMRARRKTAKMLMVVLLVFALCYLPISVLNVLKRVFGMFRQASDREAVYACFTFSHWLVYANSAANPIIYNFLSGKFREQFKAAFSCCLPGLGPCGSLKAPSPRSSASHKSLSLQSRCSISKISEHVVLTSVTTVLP
Briefly: (§1) Displacement of [3H]-[…] from human orexin 1 receptor expressed in CHO cells incubated for 2 hrs by whole cell radioligand binding assay.

The species named for experiment [2] is Homo sapiens. Kind of experiment: (§2) Displacement of [3H]-EMPA from human orexin 2 receptor expressed in CHO cells incubated for 2 hrs by whole cell radioligand binding assay.
Experiment [3] is described as follows: as §2. The conditions noted are these: for IC50: CHO.
The target of experiment [4] is T2, Orexin/Hypocretin receptor type 1 (Homo sapiens, UniProt O43613).
T2 sequence (O43613 whole entry): T1 sequence (whole entry)
The description is as §1.

Take `CCCN1C(C)=NS(=O)(=O)c2cc(C(=O)N3CCN(Cc4ccccc4)CC3)ccc21`: the pKi result in experiment [1] and in experiment [2] was “inactive” in each case. With `O=C1c2oc3ccc(Cl)cc3c(=O)c2[C@H](c2cccc([N+](=O)[O-])c2)N1Cc1ccccc1`, the pKi entry in experiment [1] and in experiment [2] was “inactive” throughout. Take `CN(C)S(=O)(=O)c1cccc(C(=O)N(CCc2ccccc2)c2nc3ccccc3s2)c1`: the IC50 in experiment [3] was more than 100 µM. Regarding `C[C@H](Cc1cnccn1)n1cc(-c2ccnc3ccccc23)nn1`, the pKi entry in experiment [1] and in experiment [2] was “inactive” in each case. As to `CN(Cc1ccncc1)C(=O)c1ccc(COc2ccccc2C#N)o1`, the pKi result in experiment [1] and in experiment [2] was “inactive” in each case. As to `Cc1cccc(C)c1NC(=O)CCCN1C(=O)c2cccnc2C1=O`, in experiment [4], the affinity corresponds to a Ki of 33.9 µM. For the same compound, the pKi in experiment [3] is 4.56. For the compound `Cc1[nH]c2ccc(C(=O)N3CCN(Cc4ccc5c(c4)OCO5)CC3)cc2c1C`, the IC50 in experiment [4] and in experiment [3] was more than 100 µM each time. `Cc1ccc(C(=O)N2CCN(Cc3nnc(-c4ccco4)o3)CC2)cc1F` returned an IC50 in experiment [3] of more than 100 µM. `CN(Cc1[nH]cc[n+]1C)C(=O)CCCc1c[nH]c2ccccc12` registered a half-maximal inhibitory concentration (IC50) in experiment [3] of more than 100 µM. Consider `O=C(OCCCn1c(=O)[nH]c2ccccc21)c1ccc2c(c1)C(=O)N(c1ccc(Cl)cc1)C2=O`, for which the pKi entry in experiment [1] and in experiment [2] was “inactive” throughout. On to `CCC(=O)N1CCCN([C@@H](C)C(=O)Nc2ccccc2C(C)=O)CC1`, for which the IC50 in experiment [3] is more than 100 µM.

`O=C1c2ccc([N+](=O)[O-])cc2C(=O)N1c1cccc(-c2nc3ccccc3c(=O)o2)c1`: the pKi result in experiment [1] and in experiment [2] was “inactive” throughout. For `CCOC(=O)c1cc(C(=O)N[C@@H](C)c2ccccc2)c(C)[nH]c1=O`, the pKi entry in experiment [1] and in experiment [2] was “inactive” each time. For `Nc1cc(-c2ncccc2C(=O)N2C[C@H]3CC[C@@H]2C3)c2cc[nH]c2n1`, the pKi result in experiment [1] and in experiment [2] was “inactive” throughout. `CC(=O)N1N=C(c2cn(C(C)=O)c3ccccc23)O[C@@H]1c1cccnc1`: the IC50 in experiment [4] and in experiment [3] was more than 100 µM throughout. In the case of `Cn1ccc2c(C(=O)N3CCN(Cc4cscn4)CC3)cccc21`, the pKi result in experiment [1] and in experiment [2] was “inactive” in each case. On to `O=C(OCC(=O)N1N=C(c2ccc(Cl)cc2)C[C@H]1c1ccco1)c1ccc(-n2cccn2)nc1`, for which the pKi entry in experiment [1] and in experiment [2] was “inactive” throughout. As for `O=C(/C=C/c1cccc(F)c1)N1CCOc2c(cc(-c3cccnc3)cc2OC[C@H]2CCCCO2)C1`, the IC50 in experiment [3] was more than 100 µM. `O=C1CCCN1c1cccc(C(=O)N(Cc2ccc(F)cc2)C2CC2)c1` had an IC50 in experiment [3] of more than 100 µM.

Take `N[C@H]1C[C@@H](C(=O)O)N(C(=O)c2ccccc2OCc2ccccc2)C1`: the pKi entry in experiment [1] and in experiment [2] was “inactive” in each case.

As for `O=C(c1ccc(Cl)c(N2CCCC2=O)c1)N1CCN(Cc2ccc3c(c2)CCO3)CC1`, the pKi entry in experiment [1] and in experiment [2] was “inactive” each time. Turning to `O=C1N(Cc2ccc(F)cc2)C[C@H]2CN(Cc3nccs3)CCN12`, the pKi result in experiment [1] and in experiment [2] was “inactive” each time.

The compound `O=C1c2ccccc2C(=O)N1CCc1nc(-c2cnccn2)no1` came in with an IC50 in experiment [3] of more than 100 µM. For `O=S(=O)(c1cc(F)cc(F)c1)N1CCN(Cc2csc(-c3ccco3)n2)CC1`, the IC50 in experiment [4] and in experiment [3] was more than 100 µM each time. Regarding `CN1C(=O)c2ccc(C(=O)OCCCn3c(=O)[nH]c4ccccc43)cc2C1=O`, the IC50 in experiment [4] and in experiment [3] was more than 100 µM in each case.

The compound `COc1ccc2cc(CN(C)C(=O)COC(=O)c3c(F)cccc3F)ccc2c1` came in with a 50% inhibitory concentration (IC50) in experiment [4] of more than 100 µM. For the compound `c1ccc(-c2n[nH]cc2-c2nc3c(cnn3Cc3ccncc3)[nH]2)cc1`, in experiment [4], the Ki was 24.5 µM. Besides, in experiment [3], the pKi stood at 4.82.

In experiment [3], `Cc1ccc(-n2nccn2)c(C(=O)N2CCN(c3nc4cc(Cl)ccc4o3)CC[C@H]2C)c1` [SUVOREXANT] yielded a pKi of 8.53. `O=C1N=C(O)/C(=C\c2ccccc2OCc2ccccc2F)C(=O)N1c1ccc2c(c1)OCO2` gave an IC50 in experiment [4] of more than 100 µM. For `Cc1nn(-c2ccccc2)c(N2CCCC2)c1/C=N/n1cnc2c(cnn2-c2ccccc2)c1=O`, the IC50 in experiment [4] and in experiment [3] was more than 100 µM in each case. Turning to `CN(CCc1cccc2ccccc12)C(=O)c1c[nH]c(=O)c(Cl)c1`, the Ki in experiment [4] was 14.8 µM. In addition, the pKi in experiment [3] is on record as 4.89.

On to `Cc1nc(-c2ncccn2)sc1C(=O)OCCn1c(C)nc2ccccc21`, for which, in experiment [3], the IC50 is more than 100 µM. Consider `O=C(CCC(=O)c1ccc2c(c1)OCCO2)Nc1cccc(C#Cc2ccccn2)c1`, for which the IC50 in experiment [4] and in experiment [3] was more than 100 µM in each case. As for `Cc1cc([C@@H]2CCCCN2C(=O)c2ccc(-c3cc[nH]n3)cc2)no1`, the half-inhibitory concentration (IC50) in experiment [4] and in experiment [3] was more than 100 µM each time. `O=S(=O)(c1ccc2c(c1)OCCO2)N1CCN(Cc2nc(-c3ccco3)cs2)CC1`: the IC50 in experiment [4] was more than 100 µM. For the same compound, the pKi result in experiment [2] was “inactive”. `COc1cccc(CN2CC3(CCN(Cc4nccs4)CC3)CC2=O)c1` had an IC50 in experiment [3] of more than 100 µM. Take `Cc1nc(C(=O)N2CCC[C@H]2Cc2nnc(-c3ccccc3)o2)c(-c2ccccc2F)s1`: the Ki in experiment [4] was 0.00389 µM. The compound further returned a pKi in experiment [3] of 6.7.

As for `Cc1nc(COc2ccc(C(=O)N3CCC[C@@H]3c3ccc4c(c3)OCCO4)cc2)cs1`, the IC50 in experiment [4] is more than 100 µM. Turning to `Cc1nc(/C=C/C(=O)Oc2ccc3c(=O)c(-c4c(F)cccc4Cl)c(C)oc3c2)cs1`, the IC50 in experiment [4] and in experiment [3] was more than 100 µM each time. Turning to `O=C1Nc2cc(C(=O)N3CCN(Cc4ccc5c(c4)OCO5)CC3)ccc2N2CCCC[C@@H]12`, the IC50 in experiment [4] and in experiment [3] was more than 100 µM throughout. `COc1cccc(-c2nc(C(=O)OCc3cccnc3)c(C)[nH]2)c1` had a Ki in experiment [4] of 14.8 µM. This compound had a pKi in experiment [3] of 4.64. Regarding `COc1cccc(-c2nc([C@@H]3CC(=O)N(Cc4ccccc4)C3)no2)c1`, the IC50 in experiment [4] and in experiment [3] was more than 100 µM in each case.

For the compound `Cc1ccc([C@H](CCO)n2cc(-c3ccnc4ccccc34)nn2)cc1`, the IC50 in experiment [4] and in experiment [3] was more than 100 µM throughout. For the compound `O=C(c1cnc(-c2ccccc2)s1)N1CCC[C@H]1c1ccncc1`, the IC50 in experiment [4] and in experiment [3] was more than 100 µM throughout. With `Cn1c(-c2ccccc2)c(C(=O)COC(=O)c2ccc3c(=O)n4c(nc3c2)CCC4)c2ccccc21`, the IC50 in experiment [4] is more than 100 µM. The pKi entry in experiment [2] is “inactive”. For the compound `O=C(c1ccc(OCc2cn3ccccc3n2)cc1)N1CCC[C@@H]1c1ccc2c(c1)OCCO2`, the IC50 in experiment [4] and in experiment [3] was more than 100 µM each time.

In experiment [4], `O=C(c1ccccc1)[C@H]1CCCN(C(=O)CCc2nc(-c3ccco3)no2)C1` returned an IC50 of more than 100 µM.

`O=C1/C(=C/c2ccc(N3CCOCC3)cc2)c2ccccc2N1c1ccccc1` gave a Ki in experiment [4] of 17.8 µM. Regarding `Cc1ccc2c(C)c(C(=O)N3CCN(Cc4ccccn4)CC3)oc2c1C`, the IC50 in experiment [4] and in experiment [3] was more than 100 µM each time. For `Cc1ccc(C(=O)[C@H](C)Oc2cccc(N3C(=O)C4C5C=CC(C5)C4C3=O)c2)cc1` (stereo partly specified), the IC50 in experiment [4] and in experiment [3] was more than 100 µM in each case. On to `CN(Cc1[nH]cc[n+]1C)C(=O)C[C@H]1CN(Cc2ccccc2)CCO1`, for which the IC50 in experiment [4] is more than 100 µM. The pKi entry in experiment [2] is “inactive”.

Consider `Fc1ccccc1COc1cccc(CNCc2ccccn2)c1`, for which the IC50 in experiment [4] is more than 100 µM. The compound also returned a negative-log Ki (pKi) in experiment [3] of 4.28.

On to `CN(Cc1[nH]cc[n+]1Cc1ccccc1)C(=O)c1cccc2cc[nH][n+]12`, for which the IC50 in experiment [3] was more than 100 µM. For `C[C@@H]1CN(c2cccc(Cl)c2)C(=O)CN1C(=O)c1cccc2ccccc12`, the IC50 in experiment [4] and in experiment [3] was more than 100 µM each time. Take `COc1cc(=O)n2c(c1C(=O)N(C)Cc1nonc1C)CCN(C(=O)C1(c3ccccc3)CC1)CC2`: the IC50 in experiment [4] and in experiment [3] was more than 100 µM each time. As for `Cc1nc(-c2cc(C)n(CC(=O)N3CCC[C@H]3c3ccncc3)c2C)cs1`, the pKi entry in experiment [1] was “inactive”. The compound `O=C(Cc1ccc(Cl)cc1)N1CCC(c2noc(-c3ccccn3)n2)CC1` returned an IC50 in experiment [3] of more than 100 µM.

As for `O=C(c1cc2c(s1)-c1ccccc1CC2)N1CCN(Cc2cc(=O)n3ccsc3n2)CC1`, the IC50 in experiment [4] and in experiment [3] was more than 100 µM in each case. Take `Cc1nc(-c2ccc(Cl)c(S(=O)(=O)N3CCC[C@@H](C(=O)N4CCc5ccccc54)C3)c2)no1`: the IC50 in experiment [4] and in experiment [3] was more than 100 µM in each case. For the compound `COc1cc(=O)n2c(c1C(=O)N(C)[C@H](C)c1ccco1)CCN(C(=O)C1(c3ccccc3)CC1)CC2`, the IC50 in experiment [4] and in experiment [3] was more than 100 µM throughout.

In turn, `CCN(Cc1cccnc1)C(=O)CN(c1ccc(OC)nc1)S(=O)(=O)c1ccccc1C` returned a negative-log Ki (pKi) in experiment [3] of 8.17. For `O=C(CCCn1nnc2ccccc2c1=O)NC1Cc2ccccc2C1`, in experiment [4], the half-inhibitory concentration (IC50) was more than 100 µM. In experiment [3], this compound showed a pKi of 4.4. As for `O=C(c1cc(S(=O)(=O)N2CCOCC2)ccc1Cl)N1CCn2c1nc1ccccc12`, the IC50 in experiment [4] and in experiment [3] was more than 100 µM each time. As for `CC1(C)OC[C@H](NC(=O)Nc2ccc(Br)cc2Br)[C@H](c2ccccc2)O1`, affinity in experiment [4] was put at a Ki of 1.35 µM. The pKi in experiment [3] came to 8.18.

For `COc1ccc2c(c1)c(CC(=O)NCc1ccccn1)c(C)n2C(=O)c1ccc(Cl)cc1`, the IC50 in experiment [4] and in experiment [3] was more than 5 µM each time.
